21 compounds from patent publication US10160747B2, “Compounds and methods for kinase modulation, and indications therefor” (Plexxikon Inc., priority 2016, dated 2018) can be followed below.

In one test the target is T1, c-KIT (Homo sapiens, UniProt P10721).
T1 construct: purchased Millipore 14-559K
As to the kind of experiment: c-KIT recombinant enzyme kinase assay (AlphaScreen). Conditions: 100 ATP, 8 pt. It is filed as biochemical. The essentials: (§1)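 Enzyme plus biotinylated poly(Glu4-Tyr) substrate (30 nM) mixed with compound, then ATP added. Donor beads went in for 20 min at room temperature, then PY20 acceptor beads for 60 min. AlphaScreen read; ATP was 10 μM for FLT3-ITD/D835Y and 100 μM for c-KIT.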

A further test has as its target T2, FLT3-D835Y (Homo sapiens, UniProt P36888, D835Y).
T2 construct: purchased Invitrogen PV3967
T2 sequence (P36888 27-993 D835Y): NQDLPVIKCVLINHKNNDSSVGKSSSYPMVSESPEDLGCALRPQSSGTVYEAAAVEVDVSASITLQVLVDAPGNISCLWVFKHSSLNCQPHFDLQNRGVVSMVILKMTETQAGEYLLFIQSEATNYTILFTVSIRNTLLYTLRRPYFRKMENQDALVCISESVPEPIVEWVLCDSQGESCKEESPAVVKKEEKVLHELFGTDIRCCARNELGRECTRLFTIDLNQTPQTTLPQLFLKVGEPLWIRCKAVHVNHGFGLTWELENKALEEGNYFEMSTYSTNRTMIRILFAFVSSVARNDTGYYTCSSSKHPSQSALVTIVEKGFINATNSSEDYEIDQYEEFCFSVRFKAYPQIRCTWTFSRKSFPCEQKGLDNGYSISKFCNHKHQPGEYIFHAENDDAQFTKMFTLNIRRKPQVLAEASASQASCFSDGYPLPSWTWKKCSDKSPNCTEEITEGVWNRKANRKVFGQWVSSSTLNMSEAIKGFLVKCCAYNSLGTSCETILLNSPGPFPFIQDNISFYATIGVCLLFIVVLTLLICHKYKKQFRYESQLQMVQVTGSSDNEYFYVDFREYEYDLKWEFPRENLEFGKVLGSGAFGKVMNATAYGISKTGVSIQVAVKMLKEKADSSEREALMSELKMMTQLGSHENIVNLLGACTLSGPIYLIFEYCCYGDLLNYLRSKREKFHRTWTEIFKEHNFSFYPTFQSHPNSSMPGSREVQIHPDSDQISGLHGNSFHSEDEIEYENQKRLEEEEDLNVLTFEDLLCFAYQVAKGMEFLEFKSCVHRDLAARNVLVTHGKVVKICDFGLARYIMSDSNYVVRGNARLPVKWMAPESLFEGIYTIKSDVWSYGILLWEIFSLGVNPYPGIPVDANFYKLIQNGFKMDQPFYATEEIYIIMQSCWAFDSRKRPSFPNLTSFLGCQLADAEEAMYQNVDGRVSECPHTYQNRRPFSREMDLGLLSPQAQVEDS
As to the kind of experiment: FLT3-D835Y recombinant enzyme kinase assay (AlphaScreen). It is filed as biochemical. Conditions: 8 pt, GMean. The essentials:
as §1

T1 sequence (P10721 26-976): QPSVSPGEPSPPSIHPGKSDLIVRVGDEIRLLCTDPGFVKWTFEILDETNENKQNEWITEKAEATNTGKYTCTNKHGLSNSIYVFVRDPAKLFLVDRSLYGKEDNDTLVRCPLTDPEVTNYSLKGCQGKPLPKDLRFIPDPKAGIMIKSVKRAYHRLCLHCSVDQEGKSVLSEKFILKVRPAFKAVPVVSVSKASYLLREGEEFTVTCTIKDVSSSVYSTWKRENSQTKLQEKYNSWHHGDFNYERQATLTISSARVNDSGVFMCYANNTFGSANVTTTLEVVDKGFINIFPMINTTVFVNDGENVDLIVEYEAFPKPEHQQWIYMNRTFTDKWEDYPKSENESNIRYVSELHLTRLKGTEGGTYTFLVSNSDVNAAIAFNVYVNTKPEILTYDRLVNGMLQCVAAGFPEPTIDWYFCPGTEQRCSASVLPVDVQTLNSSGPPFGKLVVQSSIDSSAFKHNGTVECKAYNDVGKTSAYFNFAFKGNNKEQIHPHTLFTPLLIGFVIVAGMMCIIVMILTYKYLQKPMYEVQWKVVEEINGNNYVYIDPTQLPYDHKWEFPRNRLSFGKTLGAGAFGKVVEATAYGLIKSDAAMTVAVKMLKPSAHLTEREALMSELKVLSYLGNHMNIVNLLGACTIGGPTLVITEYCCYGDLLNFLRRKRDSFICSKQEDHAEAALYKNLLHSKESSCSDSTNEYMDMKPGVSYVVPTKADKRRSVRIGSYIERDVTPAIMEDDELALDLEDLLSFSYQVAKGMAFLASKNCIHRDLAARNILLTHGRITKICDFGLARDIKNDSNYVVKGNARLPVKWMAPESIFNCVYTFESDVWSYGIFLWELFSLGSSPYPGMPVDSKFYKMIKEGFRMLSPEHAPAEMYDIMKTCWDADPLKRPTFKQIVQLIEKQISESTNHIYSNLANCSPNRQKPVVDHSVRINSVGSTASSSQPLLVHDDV

As usually defined, the IC50 is the midpoint of a concentration-inhibition curve. Regarding `Cn1cc(Nc2ncc(-c3ccc(CC(=O)Nc4cc(C(F)(F)F)ccn4)cc3)cn2)cn1` [Compound P-0139, 2-[4-[2-[(1-methylpyrazol-4-yl)amino]pyrimidin-5-yl]phenyl]-N-[4-(trifluoromethyl)-2-pyridyl]acetamide], the IC50 on c-KIT and at FLT3-D835Y was 0.0001 to 10 µM in each case.

Take `Cc1ncc(NC(=O)Cc2ccc(-c3cnc(Nc4cnn(C)c4)nc3)cc2)cc1C(F)(F)F` [Compound P-0140, 2-[4-[2-[(1-methylpyrazol-4-yl)amino]pyrimidin-5-yl]phenyl]-N-[6-methyl-5-(trifluoromethyl)-3-pyridyl]acetamide]: the IC50 on c-KIT and at FLT3-D835Y was 0.0001 to 10 µM each time.

On to `Cn1cc(Nc2ncc(-c3ccc(CC(=O)Nc4cccc(C(F)(F)F)c4)cc3)cn2)cn1` [Compound P-0141, 2-[4-[2-[(1-methylpyrazol-4-yl)amino]pyrimidin-5-yl]phenyl]-N-[3-(trifluoromethyl)phenyl]acetamide], for which the IC50 on c-KIT and on FLT3-D835Y was 0.0001 to 10 µM in each case.

Turning to `Cn1cc(Nc2ncc(-c3ccc(CC(=O)Nc4ccc(C(F)(F)F)c(F)c4)cc3)cn2)cn1` [Compound P-0142, N-[3-fluoro-4-(trifluoromethyl)phenyl]-2-[4-[2-[(1-methylpyrazol-4-yl)amino]pyrimidin-5-yl]phenyl]acetamide], the IC50 at c-KIT and at FLT3-D835Y was 0.0001 to 10 µM throughout.

For `Cn1cc(Nc2ncc(-c3ccc(CC(=O)Nc4ccc(C(C)(C)C)nc4)cc3)cn2)cn1` [Compound P-0143, N-(6-tert-butyl-3-pyridyl)-2-[4-[2-[(1-methylpyrazol-4-yl)amino]pyrimidin-5-yl]phenyl]acetamide], the concentration for half-maximal inhibition (IC50) at c-KIT and at FLT3-D835Y was 0.0001 to 10 µM each time.

For `Cn1cc(Nc2ncc(-c3ccc(CC(=O)Nc4cncc(C(C)(F)F)c4)cc3)cn2)cn1` [Compound P-0144, N-[5-(1,1-difluoroethyl)-3-pyridyl]-2-[4-[2-[(1-methylpyrazol-4-yl)amino]pyrimidin-5-yl]phenyl]acetamide], the IC50 at c-KIT and on FLT3-D835Y was 0.0001 to 10 µM each time.

As to `Cn1cc(Nc2ncc(-c3ccc(CC(=O)Nc4cnc(Cl)c(C(F)(F)F)c4)cc3)cn2)cn1` [Compound P-0145, N-[6-chloro-5-(trifluoromethyl)-3-pyridyl]-2-[4-[2-[(1-methylpyrazol-4-yl)amino]pyrimidin-5-yl]phenyl]acetamide], the IC50 on c-KIT and on FLT3-D835Y was 0.0001 to 10 µM throughout.

With `Cn1cc(Nc2ncc(-c3ccc(CC(=O)Nc4ccc(C(C)(C)C#N)nc4)cc3)cn2)cn1` [Compound P-0146, N-[6-(1-cyano-1-methyl-ethyl)-3-pyridyl]-2-[4-[2-[(1-methylpyrazol-4-yl)amino]pyrimidin-5-yl]phenyl]acetamide], the IC50 on c-KIT and on FLT3-D835Y was 0.0001 to 10 µM in each case.

In the case of `COc1ncc(NC(=O)Cc2ccc(-c3cnc(Nc4cn(C)cn4)nc3)cc2)cc1C(F)(F)F` [Compound P-0149, N-[6-methoxy-5-(trifluoromethyl)-3-pyridyl]-2-[4-[2-[(1-methylimidazol-4-yl)amino]pyrimidin-5-yl]phenyl]acetamide], the IC50 on c-KIT and at FLT3-D835Y was 0.0001 to 10 µM throughout.

For the compound `Cc1ncc(NC(=O)Cc2ccc(-c3cnc(Nc4cn(C)cn4)nc3)cc2)cc1C(F)(F)F` [Compound P-0150, 2-[4-[2-[(1-methylimidazol-4-yl)amino]pyrimidin-5-yl]phenyl]-N-[6-methyl-5-(trifluoromethyl)-3-pyridyl]acetamide], the half-inhibitory concentration (IC50) at c-KIT and on FLT3-D835Y was 0.0001 to 10 µM each time.

Turning to `Cn1cc(Nc2ncc(-c3ccc(CC(=O)Nc4cnnc(Cl)c4)cc3)cn2)cn1` [Compound P-0151, N-(6-chloropyridazin-4-yl)-2-[4-[2-[(1-methylpyrazol-4-yl)amino]pyrimidin-5-yl]phenyl]acetamide], the IC50 on c-KIT and on FLT3-D835Y was 0.0001 to 10 µM in each case.

For the compound `Cn1cc(Nc2ncc(-c3ccc(CC(=O)Nc4cccc(C(F)(F)F)n4)cc3)cn2)cn1` [Compound P-0152, 2-[4-[2-[(1-methylpyrazol-4-yl)amino]pyrimidin-5-yl]phenyl]-N-[6-(trifluoromethyl)-2-pyridyl]acetamide], the half-maximal inhibitory concentration (IC50) on c-KIT and on FLT3-D835Y was 0.0001 to 10 µM each time.

In the case of `Cn1cc(Nc2ncc(-c3ccc(CC(=O)Nc4ccnc(S(C)(=O)=O)c4)cc3)cn2)cn1` [Compound P-0154, 2-[4-[2-[(1-methylpyrazol-4-yl)amino]pyrimidin-5-yl]phenyl]-N-(2-methylsulfonyl-4-pyridyl)acetamide], the IC50 on c-KIT and at FLT3-D835Y was 0.0001 to 10 µM in each case.

For `Cn1cc(Nc2ncc(-c3ccc(CC(=O)Nc4cccc(S(C)(=O)=O)c4)cc3)cn2)cn1` [Compound P-0155, 2-[4-[2-[(1-methylpyrazol-4-yl)amino]pyrimidin-5-yl]phenyl]-N-(3-methylsulfonylphenyl)acetamide], the IC50 at c-KIT and at FLT3-D835Y was 0.0001 to 10 µM in each case.

Regarding `Cn1cc(Nc2ncc(-c3ccc(CC(=O)Nc4ccc(S(C)(=O)=O)cc4)cc3)cn2)cn1` [Compound P-0156, 2-[4-[2-[(1-methylpyrazol-4-yl)amino]pyrimidin-5-yl]phenyl]-N-(4-methylsulfonylphenyl)acetamide], the IC50 on c-KIT and on FLT3-D835Y was 0.0001 to 10 µM in each case.

For `Cn1cc(Nc2ncc(-c3ccc(CC(=O)Nc4cccc(OC(F)(F)F)c4)cc3)cn2)cn1` [Compound P-0157, 2-[4-[2-[(1-methylpyrazol-4-yl)amino]pyrimidin-5-yl]phenyl]-N-[3-(trifluoromethoxy)phenyl]acetamide], the IC50 at c-KIT and at FLT3-D835Y was 0.0001 to 10 µM in each case.

Regarding `Cn1cc(Nc2ncc(-c3ccc(CC(=O)Nc4cccc(C(C)(C)C#N)c4)cc3)cn2)cn1` [Compound P-0158, N-[3-(1-cyano-1-methyl-ethyl)phenyl]-2-[4-[2-[(1-methylpyrazol-4-yl)amino]pyrimidin-5-yl]phenyl]acetamide], the concentration for half-maximal inhibition (IC50) on c-KIT and at FLT3-D835Y was 0.0001 to 10 µM each time.

`Cn1cc(Nc2ncc(-c3ccc(CC(=O)NCc4cncc(C(F)(F)F)c4)cc3)cn2)cn1` [Compound P-0161, 2-[4-[2-[(1-methylpyrazol-4-yl)amino]pyrimidin-5-yl]phenyl]-N-[[5-(trifluoromethyl)-3-pyridyl]methyl]acetamide]: the IC50 on c-KIT and at FLT3-D835Y was 0.0001 to 10 µM each time.

On to `CCn1cc(Nc2ncc(-c3ccc(CC(=O)Nc4cnc(Cl)c(C(F)(F)F)c4)cc3)cn2)cn1` [Compound P-0165, N-[6-chloro-5-(trifluoromethyl)-3-pyridyl]-2-[4-[2-[(1-ethylpyrazol-4-yl)amino]pyrimidin-5-yl]phenyl]acetamide], for which the IC50 at c-KIT and at FLT3-D835Y was 0.0001 to 10 µM each time.

As to `CCn1cc(Nc2ncc(-c3ccc(CC(=O)Nc4cncc(C(F)(F)F)c4)cc3)cn2)cn1` [Compound P-0166, 2-[4-[2-[(1-ethylpyrazol-4-yl)amino]pyrimidin-5-yl]phenyl]-N-[5-(trifluoromethyl)-3-pyridyl]acetamide], the IC50 at c-KIT and on FLT3-D835Y was 0.0001 to 10 µM in each case.

As to `Cn1cnc(Nc2ncc(-c3ccc(CC(=O)Nc4cncc(C(F)(F)F)c4)cc3)cn2)c1` [Compound P-0167], the IC50 on c-KIT and at FLT3-D835Y was 0.0001 to 10 µM each time.
